Columns and labels:
15-LO = 15-LO product formation in A23187/AA-activated PMNL; format: cell-based, human; details: at 3 µM; mean ± s.e.m., n = 3; n.i. no inhibition
[1] = target: T1, human recombinant soluble epoxide hydrolase (sEH) (Homo sapiens, UniProt P34913); experiment: sEH activity; format: biochemical
T1 construct: made in house; host or cells: Sf9 insect cells (recombinant baculovirus)
T1 sequence (P34913 1-555): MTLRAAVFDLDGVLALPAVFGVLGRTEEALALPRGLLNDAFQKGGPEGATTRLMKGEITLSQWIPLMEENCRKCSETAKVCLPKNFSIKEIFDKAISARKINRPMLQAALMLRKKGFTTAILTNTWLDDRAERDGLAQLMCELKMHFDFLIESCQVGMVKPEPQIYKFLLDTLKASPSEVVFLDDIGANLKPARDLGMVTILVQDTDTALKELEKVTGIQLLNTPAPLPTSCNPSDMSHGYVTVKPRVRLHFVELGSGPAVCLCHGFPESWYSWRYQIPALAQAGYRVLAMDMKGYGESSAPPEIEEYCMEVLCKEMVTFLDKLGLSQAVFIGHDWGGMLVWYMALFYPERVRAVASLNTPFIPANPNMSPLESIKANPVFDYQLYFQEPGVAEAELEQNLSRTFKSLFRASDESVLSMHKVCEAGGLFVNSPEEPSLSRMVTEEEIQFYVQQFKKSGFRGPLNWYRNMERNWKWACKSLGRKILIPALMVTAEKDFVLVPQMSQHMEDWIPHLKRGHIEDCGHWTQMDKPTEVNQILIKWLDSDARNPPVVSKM
Protocol: To investigate the effect of LCMs on sEH activity, we purified the human recombinant enzyme from sEH expressing Sf9 insect cells by benzylthio-sepharose affinity chromatography. […] The purified enzyme (60 ng) was diluted in 25 mM Tris HCl, pH 7 plus 0.1 mg/ml BSA and pre-incubated with LCMs for 10 min at room temperature. The enzymatic reaction was started by addition of PHOME (50 µM, Cayman Chemicals), which was converted to the fluorescent 6-methoxy-naphtaldehyde.

12-LO = target: T2, 12-LO (Homo sapiens, UniProt P18054); experiment: 12-LO product formation in A23187/AA-activated PMNL; format: cell-based
T2 construct: 12-HETE (12-LO product from platelets in PMNL preparations); endogenous in cells; host or cells: platelets contaminating human PMNL preparations
T2 sequence (P18054 1-663): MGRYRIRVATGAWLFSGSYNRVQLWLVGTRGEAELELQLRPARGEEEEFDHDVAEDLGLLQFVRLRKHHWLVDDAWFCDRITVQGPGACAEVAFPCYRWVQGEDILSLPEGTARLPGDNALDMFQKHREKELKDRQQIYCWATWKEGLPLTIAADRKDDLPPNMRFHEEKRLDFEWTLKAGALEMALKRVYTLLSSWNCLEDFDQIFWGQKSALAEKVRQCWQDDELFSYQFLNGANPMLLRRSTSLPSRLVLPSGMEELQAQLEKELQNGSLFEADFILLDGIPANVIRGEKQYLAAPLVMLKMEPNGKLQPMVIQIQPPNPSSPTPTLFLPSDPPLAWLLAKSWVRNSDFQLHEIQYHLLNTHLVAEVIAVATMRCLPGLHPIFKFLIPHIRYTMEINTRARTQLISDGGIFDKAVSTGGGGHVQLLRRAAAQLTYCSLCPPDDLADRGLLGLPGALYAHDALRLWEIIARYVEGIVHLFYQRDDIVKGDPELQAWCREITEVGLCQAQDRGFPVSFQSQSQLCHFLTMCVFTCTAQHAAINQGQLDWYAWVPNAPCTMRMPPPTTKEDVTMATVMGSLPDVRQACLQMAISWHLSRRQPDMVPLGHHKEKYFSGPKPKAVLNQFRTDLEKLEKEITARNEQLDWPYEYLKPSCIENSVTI

COX-1 = target: T3, COX-1 (Homo sapiens, UniProt P23219); experiment: COX-1 activity (12-HHT formation) in washed platelets; format: cell-based
T3 construct: Freshly isolated human platelets (1 × 10^8) were pre-incubated with LCMs; endogenous in cells; host or cells: washed human platelets
T3 sequence (P23219 24-599): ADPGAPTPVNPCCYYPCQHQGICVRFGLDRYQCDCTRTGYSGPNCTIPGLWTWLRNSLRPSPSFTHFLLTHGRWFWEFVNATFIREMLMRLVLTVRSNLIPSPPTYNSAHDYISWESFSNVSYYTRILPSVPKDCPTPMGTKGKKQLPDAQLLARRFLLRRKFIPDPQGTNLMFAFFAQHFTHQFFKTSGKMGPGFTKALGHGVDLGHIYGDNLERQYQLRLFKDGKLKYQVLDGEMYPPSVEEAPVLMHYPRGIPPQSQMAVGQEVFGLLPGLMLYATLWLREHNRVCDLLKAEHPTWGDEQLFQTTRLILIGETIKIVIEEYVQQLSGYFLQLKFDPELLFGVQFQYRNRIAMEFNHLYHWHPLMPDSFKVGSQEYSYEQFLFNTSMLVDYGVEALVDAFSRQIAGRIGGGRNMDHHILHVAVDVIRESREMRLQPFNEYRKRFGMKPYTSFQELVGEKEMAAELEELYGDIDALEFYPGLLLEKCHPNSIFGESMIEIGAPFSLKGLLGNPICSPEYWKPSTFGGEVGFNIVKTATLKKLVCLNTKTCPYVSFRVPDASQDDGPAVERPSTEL
Protocol: Freshly isolated human platelets (1 × 10^8) were pre-incubated with LCMs for 5 min at room temperature. Formation of COX-1-derived 12-HHT was initiated by addition of exogenous AA (5 µM).

COX-2 = target: T4, COX-2 (Homo sapiens, UniProt P35354); experiment: Activity of isolated COX-2; format: biochemical; parameters: purchased Cayman Chemicals; details: up to 10 µM
T4 sequence (P35354 18-604): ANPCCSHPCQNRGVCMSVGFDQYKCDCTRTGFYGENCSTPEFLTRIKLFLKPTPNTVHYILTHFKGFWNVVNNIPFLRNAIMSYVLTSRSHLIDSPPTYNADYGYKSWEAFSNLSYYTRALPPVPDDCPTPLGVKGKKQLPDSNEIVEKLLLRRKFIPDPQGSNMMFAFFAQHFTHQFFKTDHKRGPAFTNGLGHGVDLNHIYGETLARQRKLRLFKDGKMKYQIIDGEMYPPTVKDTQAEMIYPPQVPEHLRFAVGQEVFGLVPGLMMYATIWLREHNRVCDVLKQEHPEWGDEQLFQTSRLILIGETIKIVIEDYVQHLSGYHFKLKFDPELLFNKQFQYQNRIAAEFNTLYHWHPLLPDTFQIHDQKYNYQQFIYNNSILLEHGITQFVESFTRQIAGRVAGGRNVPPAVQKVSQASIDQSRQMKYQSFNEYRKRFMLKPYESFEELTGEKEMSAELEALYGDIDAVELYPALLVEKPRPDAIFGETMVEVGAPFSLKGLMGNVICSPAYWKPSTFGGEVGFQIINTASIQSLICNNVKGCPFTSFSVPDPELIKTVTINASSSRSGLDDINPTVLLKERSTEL
Protocol: Purified bovine COX-1 (Cayman Chemicals; 50 units) or human recombinant COX-2 (Cayman Chemicals; 20 units) in 100 mM Tris buffer pH 8, 5 mM glutathione, 5 µM hemoglobin, and 100 µM EDTA were pre-incubated with LCMs for 5 min at 4 °C followed by 1 min at 37 °C. Formation of COX-derived 12(S)-hydroxy-5-cis-8,10-trans-heptadecatrienoic acid (12-HHT) was initiated by addition of AA (COX-1: 5 μM; COX-2: 2 μM).

With `Cc1c(C)c2c(c(C)c1O)CC[C@@](C)(CCCC(C)CCCC(C)CCCC(C)C(=O)O)O2` (stereo partly drawn) [4a, 13-((2R)-6-hydroxy-2,5,7,8-tetramethylchroman-2-yl)-2,6,10-trimethyltridecanoic acid] the “15-LO product formation/PMNL, residual activity” value (15-LO) was 52.6 ± 20.3 % of control, the IC50 [1] was over 10 µM and the IC50 (12-LO) was over 3 µM. The “12-LO product formation/PMNL, residual activity” value (12-LO; at 3 µM, mean ± s.e.m., n = 3, n.i. no inhibition) was 55.3 ± 1.7 % of control, the IC50 (COX-1) was 6.9 µM and the “inhibition of human recombinant COX-2” value (COX-2) was “not inhibited”.

From article PMC6148290, “Endogenous metabolites of vitamin E limit inflammation by targeting 5-lipoxygenase” (Nature Communications, 2018)
